According to ChEMBL document CHEMBL1201862, “PubChem BioAssay data set” (2004):
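Values below derive from 48-hour exposures of cells grown in 96-well plates, with endpoints linearly interpolated between the two concentrations bracketing the appropriate inhibition level. Here, GI50 denotes the concentration required for 50% inhibition of growth.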 The source made the active and inactive calls. No stated cut-off is given here; in the data, active = GI50 up to about 1.1 µM and inactive = higher.

Tests used:
Assay in all cases: NCI-60 cell line screen, 48 h
HCT-116 = tested on: HCT-116
MCF7 = tested on: MCF7
LOX IMVI = tested on: LOX IMVI
DMS-114 = tested on: DMS-114
HOP-18 = tested on: HOP-18
M19-MEL = tested on: M19-MEL
COLO 205 = tested on: COLO 205
RXF 393 = tested on: RXF 393
NCI-H522 = tested on: NCI-H522
KM-20L2 = tested on: KM-20L2
HOP-92 = tested on: HOP-92
IGROV-1 = tested on: IGROV-1
LXFL 529 = tested on: LXFL 529
XF498 = tested on: XF498
ACHN = tested on: ACHN
TK-10 = tested on: TK-10
SR = tested on: SR
M14 = tested on: M14
Hs-578T = tested on: Hs-578T
MDA-N = tested on: MDA-N

With CC(=O)C(=O)NC1/C=C(C)\C=C/C(O)C/C=C(C)\C=C/C(O)CC2OC(=O)C1(C)C(=O)C2C (stereo not given) the GI50 (HCT-116) was > 100 µM (inactive), the GI50 (MCF7) was > 100 µM (inactive) and the GI50 (LOX IMVI) was > 100 µM (inactive). For the same compound, the GI50 (DMS-114) was > 100 µM (inactive), the GI50 (HOP-18) was > 100 µM (inactive) and the GI50 (M19-MEL) was > 100 µM (inactive). The GI50 (COLO 205) was > 62.2 µM (inactive), the GI50 (RXF 393) was > 100 µM (inactive) and the GI50 (NCI-H522) was > 100 µM (inactive). For the same compound, the GI50 (KM-20L2) was > 100 µM (inactive), the GI50 (HOP-92) was > 100 µM (inactive) and the GI50 (IGROV-1) was > 100 µM (inactive).

In the case of CSC(=S)N(C)c1nc(N(C)C)s[s+]1, the GI50 (LXFL 529) is reported as > 100 µM (inactive), the GI50 (XF498) is reported as > 100 µM (inactive) and the GI50 (ACHN) is reported as > 100 µM (inactive). For the same compound, the GI50 (TK-10) was > 100 µM (inactive), the GI50 (HCT-116) was > 100 µM (inactive) and the GI50 (DMS-114) was > 100 µM (inactive). The GI50 (HOP-18) was > 100 µM (inactive), the GI50 (M19-MEL) was > 100 µM (inactive) and the GI50 (SR) was > 100 µM (inactive). For the same compound, the GI50 (RXF 393) was > 100 µM (inactive), the GI50 (NCI-H522) was > 100 µM (inactive) and the GI50 (KM-20L2) was > 100 µM (inactive). For the same compound, the GI50 (M14) was > 100 µM (inactive), the GI50 (HOP-92) was > 100 µM (inactive) and the GI50 (IGROV-1) was > 100 µM (inactive).

CSc1nc(NC2OC(CO)C(O)C(O)C2O)c(N)c(=O)n1C (stereo not given) was tested, and the GI50 (XF498) was > 100 µM (inactive), the GI50 (HCT-116) was > 100 µM (inactive) and the GI50 (MCF7) was > 100 µM (inactive). The GI50 (LOX IMVI) was > 100 µM (inactive), the GI50 (DMS-114) was > 100 µM (inactive) and the GI50 (HOP-18) was > 100 µM (inactive). The GI50 (M19-MEL) was > 100 µM (inactive), the GI50 (COLO 205) was > 100 µM (inactive) and the GI50 (RXF 393) was > 100 µM (inactive). The GI50 (NCI-H522) was > 100 µM (inactive), the GI50 (KM-20L2) was > 100 µM (inactive) and the GI50 (HOP-92) was > 100 µM (inactive). For the same compound, the GI50 (IGROV-1) was > 100 µM (inactive).

In the case of O=S(=O)(CCBr)CCBr, the GI50 (XF498) is reported as < 0.01 µM (active), the GI50 (HCT-116) is reported as 3.37 µM (inactive) and the GI50 (MCF7) is reported as 4.91 µM (inactive). The GI50 (LOX IMVI) was 7.67 µM (inactive), the GI50 (DMS-114) was 2.18 µM (inactive) and the GI50 (HOP-18) was 15 µM (inactive). The GI50 (M19-MEL) was 2.83 µM (inactive), the GI50 (COLO 205) was 3.21 µM (inactive) and the GI50 (RXF 393) was 2.17 µM (inactive). For the same compound, the GI50 (NCI-H522) was 1.48 µM (inactive), the GI50 (KM-20L2) was 11.1 µM (inactive) and the GI50 (HOP-92) was 6.21 µM (inactive). The GI50 (IGROV-1) was 5.42 µM (inactive).

NCCCn1c(Cl)nc2ccccc21 was tested, and the GI50 (ACHN) was > 100 µM (inactive), the GI50 (HCT-116) was > 100 µM (inactive) and the GI50 (MCF7) was > 100 µM (inactive). For the same compound, the GI50 (Hs-578T) was > 100 µM (inactive), the GI50 (LOX IMVI) was > 100 µM (inactive) and the GI50 (COLO 205) was > 100 µM (inactive). The GI50 (SR) was > 100 µM (inactive), the GI50 (RXF 393) was > 100 µM (inactive) and the GI50 (NCI-H522) was > 100 µM (inactive). For the same compound, the GI50 (MDA-N) was > 100 µM (inactive), the GI50 (M14) was > 100 µM (inactive) and the GI50 (IGROV-1) was > 100 µM (inactive).

CNC(=S)N/N=C(/C)CCC/C(C)=N/NC(=S)NC was tested, and the GI50 (ACHN) was > 80.7 µM (inactive), the GI50 (TK-10) was > 100 µM (inactive) and the GI50 (MCF7) was 0.151 µM (active). The GI50 (Hs-578T) was > 100 µM (inactive), the GI50 (LOX IMVI) was 1.8 µM (inactive) and the GI50 (COLO 205) was 0.308 µM (active). For the same compound, the GI50 (SR) was 3.89 µM (inactive), the GI50 (NCI-H522) was 0.728 µM (active) and the GI50 (MDA-N) was > 100 µM (inactive). The GI50 (M14) was > 100 µM (inactive), the GI50 (HOP-92) was > 100 µM (inactive) and the GI50 (IGROV-1) was 3.02 µM (inactive).

In the case of C[n+]1ccc(Nc2ccc(NC(=O)c3ccc(Nc4cc[n+](C)c5ccc([N+](=O)[O-])cc45)cc3[N+](=O)[O-])cc2)cc1, the GI50 (XF498) is reported as > 41.3 µM (inactive), the GI50 (HCT-116) is reported as 31.1 µM (inactive) and the GI50 (LOX IMVI) is reported as > 68.2 µM (inactive). For the same compound, the GI50 (DMS-114) was 1.05 µM (active), the GI50 (HOP-18) was 20.3 µM (inactive) and the GI50 (M19-MEL) was 20 µM (inactive). For the same compound, the GI50 (COLO 205) was 14 µM (inactive), the GI50 (NCI-H522) was 16.6 µM (inactive) and the GI50 (HOP-92) was 22.8 µM (inactive).

With CO/N=C1/c2sccc2[C@H](NC(=O)C(Cc2ccccc2)NC(=O)OC(C)(C)C)[C@@H]1O (stereo not given in full) the GI50 (TK-10) was > 100 µM (inactive), the GI50 (HCT-116) was > 100 µM (inactive) and the GI50 (MCF7) was > 100 µM (inactive). The GI50 (Hs-578T) was > 100 µM (inactive), the GI50 (LOX IMVI) was > 100 µM (inactive) and the GI50 (COLO 205) was > 100 µM (inactive). For the same compound, the GI50 (SR) was 49.5 µM (inactive), the GI50 (RXF 393) was > 100 µM (inactive) and the GI50 (MDA-N) was > 100 µM (inactive). The GI50 (M14) was > 100 µM (inactive), the GI50 (HOP-92) was > 100 µM (inactive) and the GI50 (IGROV-1) was > 100 µM (inactive).

For CCC1CN2CCc3cc(OC)c(OC)cc3C2CC1CC1c2cc(OC)c(OC)cc2CCN1C(=O)C(N)Cc1ccccc1.[O-][Cl+3]([O-])([O-])O (stereo not given), the GI50 (LXFL 529) was 1.67 µM (inactive), the GI50 (XF498) was 1.34 µM (inactive) and the GI50 (ACHN) was 2.88 µM (inactive). For the same compound, the GI50 (TK-10) was 2.75 µM (inactive), the GI50 (HCT-116) was 0.305 µM (active) and the GI50 (LOX IMVI) was 0.386 µM (active). For the same compound, the GI50 (SR) was 0.423 µM (active), the GI50 (RXF 393) was 1.65 µM (inactive) and the GI50 (NCI-H522) was 0.385 µM (active). For the same compound, the GI50 (KM-20L2) was 1.07 µM (active), the GI50 (M14) was 0.628 µM (active) and the GI50 (HOP-92) was 1.19 µM (inactive).

For C=C1CC(OC)(C(OC)C(=O)N(C)[C@H]2OCO[C@H]3C2O[C@H](C[C@@H](COC)OC)C(C)(C)C3OC)O[C@H](C)[C@@H]1C (stereo not given in full), the GI50 (XF498) was 7.91 µM (inactive), the GI50 (HCT-116) was 9.44 µM (inactive) and the GI50 (MCF7) was 5.3 µM (inactive). The GI50 (LOX IMVI) was 5.68 µM (inactive), the GI50 (DMS-114) was 11.2 µM (inactive) and the GI50 (HOP-18) was 25.5 µM (inactive). The GI50 (COLO 205) was 8.97 µM (inactive), the GI50 (RXF 393) was 10.6 µM (inactive) and the GI50 (NCI-H522) was 11.5 µM (inactive). The GI50 (KM-20L2) was 13.3 µM (inactive) and the GI50 (IGROV-1) was 10.1 µM (inactive).

For Cc1cc(C)c2c(c1)CC1(Cc3c(C)ccc(C)c3C1=O)C2=O (stereo not given), the GI50 (ACHN) was > 100 µM (inactive), the GI50 (TK-10) was > 100 µM (inactive) and the GI50 (MCF7) was > 100 µM (inactive). For the same compound, the GI50 (Hs-578T) was > 100 µM (inactive), the GI50 (COLO 205) was > 100 µM (inactive) and the GI50 (SR) was > 100 µM (inactive). For the same compound, the GI50 (RXF 393) was > 100 µM (inactive), the GI50 (NCI-H522) was > 100 µM (inactive) and the GI50 (MDA-N) was > 100 µM (inactive). The GI50 (M14) was > 100 µM (inactive), the GI50 (HOP-92) was > 100 µM (inactive) and the GI50 (IGROV-1) was > 100 µM (inactive).

CCOC(=O)c1csc(NC(=O)C(C)N2CCOCC2)n1 (stereo not given) was tested, and the GI50 (ACHN) was > 100 µM (inactive), the GI50 (TK-10) was > 100 µM (inactive) and the GI50 (MCF7) was > 100 µM (inactive). The GI50 (LOX IMVI) was > 100 µM (inactive), the GI50 (COLO 205) was > 100 µM (inactive) and the GI50 (SR) was > 100 µM (inactive). For the same compound, the GI50 (RXF 393) was > 100 µM (inactive), the GI50 (MDA-N) was > 100 µM (inactive) and the GI50 (M14) was > 100 µM (inactive). For the same compound, the GI50 (HOP-92) was > 100 µM (inactive) and the GI50 (IGROV-1) was > 100 µM (inactive).

With N#CCCN(CCC#N)c1ccc(/C=C2\N=C(c3cc([N+](=O)[O-])ccc3Cl)N(S(=O)(=O)c3ccccc3)C2=O)cc1 the GI50 (LXFL 529) was > 100 µM (inactive), the GI50 (XF498) was > 100 µM (inactive) and the GI50 (ACHN) was > 100 µM (inactive). The GI50 (TK-10) was > 100 µM (inactive), the GI50 (HCT-116) was > 100 µM (inactive) and the GI50 (LOX IMVI) was > 100 µM (inactive). The GI50 (DMS-114) was > 100 µM (inactive), the GI50 (HOP-18) was 37.7 µM (inactive) and the GI50 (M19-MEL) was > 100 µM (inactive). The GI50 (COLO 205) was > 100 µM (inactive), the GI50 (SR) was > 100 µM (inactive) and the GI50 (RXF 393) was > 100 µM (inactive). The GI50 (NCI-H522) was > 100 µM (inactive), the GI50 (KM-20L2) was > 100 µM (inactive) and the GI50 (HOP-92) was > 100 µM (inactive). The GI50 (IGROV-1) was > 100 µM (inactive).
